Experimental data: patent US11603364B2, “Acyl hydrazone derivative compounds for treating disease” (Alterity Therapeutics Limited, priority 2020, dated 2023)

Legend:
BE(2)-M17 (M17) cells = experiment: Method I: Measurement of Fe efflux from cells (57Fe-loaded, ICP-MS of media); format: cell-based, human; settings: M17 cells loaded with 20 μM 57Fe, compound 20 μM, 2 h; for activation at 20 µM: Homo sapiens, read-out: Fe-Efflux (% increase of Fe in media relative to cell media in the absence of the compound)
Method: Method I: Measurement of Fe Efflux from Cells
Compounds of the current invention were assessed for their ability to efflux iron (Fe) from a cell using the following protocol.
The human neuroblastoma line BE(2)-M17 (M17) cell cultures were acquired from Sigma Aldrich (Catalogue #: 95011816). M17 Cells were maintained in Opti-MEM reduced serum media supplemented with 10% fetal bovine serum (Bovogen, SFBSF) and passaged twice weekly. Cells were cultured at 37° C. in the presence of 5% CO2. Culture supplies were sourced from Thermo Fisher unless otherwise stated.
A solution of ^57Fe cold isotope was prepared by dissolving ^57Fe metal (>95% enrichment, Trace Sciences International) in concentrated HCl to give a final concentration of 573 mM. From this master solution, a 10 mM working solution was prepared in sterile water. The working solution was used within two months of preparation.
M17 cells were loaded with iron initially by seeding into 48-well plates at a density of 0.15×10^6 cells per well in 0.5 mL media. After 48 h, old media was discarded. Fresh media was supplemented with 20 μM ^57Fe isotope, from the 10 mM ^57Fe working solution. Cells received 0.2 mL of this ^57Fe enriched media and were returned to the incubator for 20 h. The ability of experimental compounds to efflux iron was determined by the dissolution of compounds in DMSO and diluted in Hanks' Balanced Salt Solution (HBSS) for treatment of M17 cells. After ^57Fe incubation, cells were rinsed twice with HBSS and treated with 0.15 mL trial compound for 2 h at a concentration of 20 μM. All assays included a relevant vehicle (0.4%-0.8% DMSO) as well as a positive control (20 μM). Following the treatment period, 0.1 mL of media was collected from cells and the extracellular ^57Fe content was analysed via inductively coupled mass spectrometry (ICP-MS, Agilent 7700x series instrument).
To perform this protocol the following supplies were purchased from Sigma Aldrich: anhydrous dimethyl sulfoxide (DMSO, Catalogue #: 276855), Hanks' Balanced Salt Solution supplemented with 20 mM HEPES and 4.2 mM Sodium Bicarbonate (HBSS, pH: 7.4, Catalogue #: H1387).
After 2 h the Fe levels in the media were measured and the increase determined as a percentage increase relative to the cell media in the absence of the compound.
Representative data is provided in Table 13 where the % Fe efflux for the specified compounds of the invention lie in the following ranges: A<30%, B 30-100%, C 100-150%; D>150%.

phospho-GSK-3β = experiment: GSK 3b assay: Zn ionophore-enhanced phosphorylation of GSK-3β (AlphaScreen SureFire Phospho-GSK 3β (Ser9) kit) in SH-SY5Y cells; format: cell-based, human; settings: test compound 2 μM + ZnCl2 5 μM, 2 h at 37° C.
Method: The phosphorylation of GSK-3β is enhanced when Zn is imported into a cell by a Zn ionophore. This property was measured for the compounds of the current invention and the data presented relative to the know Zn ionophore PBT2 using the following protocol.
The human neuroblastoma SH-SY5Y cells were obtained from Cell bank Australia (Catalogue number: 94030304). SH-SY5Y cell culture was maintained in DMEM/F12+15% FBS inside an incubator at 37° C. in the presence of 5% CO2. The cells were sub-cultured once a week and the media exchanged once during the week. Cells for the assay were plated at a density of 60,000 cells/well.
Stock solutions of the samples were prepared as a 5 mM stock in DMSO and a stock solution of 1 mM ZnCl2/3 mM Glutamic acid was prepared in water. Immediately before use the compounds were diluted 1:10 with water before being added to Locke's buffer in a treatment tube. Samples were subsequently treated with either distilled water or the ZnCl2/Glutamic acid solution to yield a treatment solution which has a final concentration of the test compound at 2 μM+/−ZnCl2 at 5 μM.
The culture media was aspirated from the wells and the media replaced with the treatment solution prepared above. In addition to the relative standard (PBT2+/−ZnCl2), control wells were also included consisting of +/−ZnCl2 at 5 μM with all treatments done in triplicate. The plate was incubated at 37° C. with the treatment solution for 2 h after which time the wells were aspirated and washed with sterile PBS.
Measurement of the change of phospho-GSK-3β was determined using an AlphaScreen® SureFire® Phospho-GSK […] (Ser9) Kit with the cells being processed as per the manufacturer's instructions using an initial incubation of 2 h/24° C. and a final incubation of 16 h/24° C.
The fluorescence was measured on an Enspire plate reader. […] Representative data is presented in Table 12 using the following ranges: A<50%, B 50-<100%, C 100-<150%, D>150%.

| SMILES | activation at 20 µM (BE(2)-M17 (M17) cells) [%] | GSK-Zn (signal as % of the positive standard PBT2+ZnCl2) (phospho-GSK-3β) | Fe-Efflux (% increase of Fe in media relative to cell media in the absence of the compound) (BE(2)-M17 (M17) cells) |
| --- | --- | --- | --- |
| COc1cccc(C(=O)N/N=C(\C)c2ncccn2)c1 [Compound 47] | 30 to 100 | C (C 100-<150%) | – |
| Cc1nnsc1C(=O)N/N=C1\CCOc2cccnc21 [Compound 172] | 100 to 150 | – | – |
| O=C(N/N=C1\CCCc2cccnc21)c1ccccc1Cl [Compound 15] | > 150 | D (D>150%) | – |
| O=C(N/N=C1\CCOc2cccnc21)c1cccnc1 [Compound 171, (E)-N′-(2,3-dihydro-4H-pyrano[3,2-b]pyridin-4-ylidene)nicotinohydrazide] | < 30 | – | – |
| C/C(=N\NC(=O)c1cccc(C)c1)c1nccnc1C [Compound 58] | < 30 | – | – |
| O=C(N/N=C/c1cn2ccccc2n1)c1cc2ccccc2s1 [Compound 138] | < 30 | – | – |
| O=C(N/N=C1\CCCc2cccnc21)c1cccnc1 [Compound 1, (E)-N′-(6,7-Dihydroquinolin-8(5H)-ylidene)nicotinohydrazide] | > 150 | A (A<50%) | – |
| Cc1cccc(C(=NNC(=O)c2ccccc2C)c2cccc(C)n2)n1 [Compound 122] | < 30 | A (A<50%) | – |
| C/C(=N\NC(=O)c1snnc1C)c1ccc2ccccc2n1 [Compound 91] | 30 to 100 | C (C 100-<150%) | – |
| COc1ccc(C(=O)N/N=C2\CCCc3cccnc32)cc1OC [Compound 7] | 30 to 100 | A (A<50%) | – |
| COc1cccc(C(=O)N/N=C(/c2ncccn2)C(C)C)c1 [Compound 50] | < 30 | C (C 100-<150%) | – |
| COC(=O)CN(/N=C(\C)c1ccccn1)C(=O)c1cc2ccccc2s1 [Compound 147, (E)-Methyl 2-(1-(benzo[b]thiophene-2-carbonyl)-2-(1-(pyridin-2-yl)ethylidene) hydrazinyl) Acetate] | – | – | A (A<30%) |
| CCOc1ccccc1C(=O)N/N=C1\CCCc2cccnc21 [Compound 4] | 30 to 100 | A (A<50%) | – |
| CCOC(=O)C1CCc2cccnc2/C1=N/NC(=O)c1snnc1C (stereo not drawn) [Compound 31] | 30 to 100 | – | – |
| COc1ccccc1C(=O)N/N=C(\C)c1cc(C)ccn1 [Compound 55] | 30 to 100 | – | – |
| COc1ccccc1C(=O)N/N=C1\CCCc2cccnc21 [Compound 8] | 100 to 150 | A (A<50%) | – |
| Cc1cc(C(=O)N/N=C2\CCCc3cccnc32)no1 [Compound 33] | > 150 | – | – |
| COc1ccc(C(=O)N/N=C2\CCCc3cccnc32)cc1 [Compound 9] | 30 to 100 | A (A<50%) | – |
| O=C(N/N=C1\CCCc2cccnc21)c1ccccc1OCCCN1CCCCC1 [Compound 42] | > 150 | – | – |

| SMILES | activation at 20 µM (BE(2)-M17 (M17) cells) [%] | GSK-Zn (signal as % of the positive standard PBT2+ZnCl2) (phospho-GSK-3β) | Fe-Efflux (% increase of Fe in media relative to cell media in the absence of the compound) (BE(2)-M17 (M17) cells) |
| --- | --- | --- | --- |
| Cc1ccc(C(=O)N/N=C/c2nccn2C)cn1 [Compound 117] | < 30 | – | – |
| Cc1nnsc1C(=O)N/N=C(/c1ncccn1)C(C)C [Compound 52] | 30 to 100 | B (B 50-<100%) | – |
| O=C(N/N=C1\CCCc2cccnc21)c1ccccc1 [Compound 10] | 30 to 100 | B (B 50-<100%) | – |
| Cc1nc(C)c(C(=O)N/N=C2\CCCc3cccnc32)s1 [Compound 32] | 100 to 150 | – | – |
| C/C(=N\NC(=O)c1cc2c(s1)-c1ccccc1OC2)c1nc(C)cs1 [Compound 101] | < 30 | – | – |
| C/C(=N\NC(=O)c1cccc(C)c1)c1ncccn1 [Compound 49] | > 150 | B (B 50-<100%) | – |
| COc1cccc(C(=O)N/N=C2\CCCc3cccnc32)c1 [Compound 6] | < 30 | A (A<50%) | – |
| Cc1nnsc1C(=O)N/N=C1\CCCc2cccnc21 [Compound 23] | > 150 | C (C 100-<150%) | – |
| O=C(N/N=C1\CCOc2cccnc21)c1cccs1 [Compound 178] | 100 to 150 | – | – |
| CN(C)CCOc1ccccc1C(=O)N/N=C1\CCCc2cccnc21.Cl [Compound 39] | > 150 | A (A<50%) | – |
| O=C(N/N=C1\CCCc2cccnc21)c1ccccc1OCCN1CCCCC1 [Compound 40] | > 150 | – | – |
| C/C(=N\NC(=O)c1snnc1C)c1nccnc1C [Compound 57] | 100 to 150 | – | – |
| O=C(N/N=C1\CCCc2cccnc21)c1ccncc1 [Compound 3] | > 150 | A (A<50%) | – |
| O=C(N/N=C/c1nccs1)c1cc(Cl)ccc1O [Compound 109] | – | B (B 50-<100%) | – |
| C/C(=N\NC(=O)c1snnc1C)c1ncccn1 [Compound 48] | > 150 | C (C 100-<150%) | – |
| C/C(=N\NC(=O)c1snnc1C)c1nc(C)cs1 [Compound 100, (E)-4-Methyl-N′-(1-(4-methylthiazol-2-yl)ethylidene)-1,2,3-thiadiazole-5-carbohydrazide] | – | C (C 100-<150%) | – |
| O=C(N/N=C1\CCCc2cccnc21)c1ccccn1 [Compound 2] | 100 to 150 | A (A<50%) | – |
| O=C(N/N=C1\CCCc2cccnc21)c1cc2c(s1)-c1ccccc1OC2 [Compound 25] | – | B (B 50-<100%) | – |
| C/C(=N\NC(=O)c1cc2ccccc2s1)c1cccc(C)n1 [Compound 75] | – | C (C 100-<150%) | – |
